Experimental data from PubChem BioAssay AID256 (DTP/NCI, 2004).
Where “and” joins values, the source holds several entries; their conditions need not be identical. Equal entries are not always repeated. Toxic doses and inconclusive results are not listed.

System: CD2F1 mice, L1210 leukemia ip, survival T/C
Assay: NCI In Vivo Anticancer Drug Screen. Data for tumor model L1210 Leukemia (intraperitoneal) in CD2F1 (CDF1) mice
Settings: higher = longer survival
Procedure, shortened: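 Activity against a transplanted murine tumor was judged by comparing the compound group with a vehicle group. The outcome in the treated animals was divided by that in the controls.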

[1] = endpoint: mean survival time, dose: 50.0 mg/kg/injection, schedule: Q01DX009 (ip), vehicle: saline
[2] = endpoint: mean survival time, dose: 100.0 mg/kg/injection, schedule: Q04DX003 (ip), vehicle: saline with Tween-80
[3] = endpoint: mean survival time, dose: 200.0 mg/kg/injection, schedule: Q04DX003 (ip), vehicle: saline with Tween-80
[4] = endpoint: mean survival time, dose: 400.0 mg/kg/injection, schedule: Q04DX003 (ip), vehicle: saline with Tween-80
[5] = endpoint: mean survival time, dose: 100.0 mg/kg/injection, schedule: Q01DX001 (ip), vehicle: saline
[6] = endpoint: mean survival time, dose: 200.0 mg/kg/injection, schedule: Q01DX001 (ip), vehicle: saline
[7] = endpoint: mean survival time, dose: 25.0 mg/kg/injection, schedule: Q01DX009 (ip), vehicle: saline with Tween-80
[8] = endpoint: mean survival time, dose: 100.0 mg/kg/injection, schedule: Q01DX001 (ip), vehicle: saline with Tween-80
[9] = endpoint: mean survival time, dose: 100.0 mg/kg/injection, schedule: Q01DX009 (ip), vehicle: saline with Tween-80

`C[n+]1cccc(NC(=O)c2ccc(NC(=O)C34CCC(C(=O)Nc5ccc(C(=O)Nc6ccc[n+](C)c6)cc5)(CC3)CC4)cc2)c1` was tested, and the T/C (endpoint: mean survival time, dose: 2.5 mg/kg/injection, schedule: Q01DX009 (ip), vehicle: saline with Tween-80) was 113 % of control, the T/C (endpoint: mean survival time, dose: 5.0 mg/kg/injection, schedule: Q01DX009 (ip), vehicle: saline with Tween-80) was 123 % of control and 104 % of control and the T/C (endpoint: mean survival time, dose: 10.0 mg/kg/injection, schedule: Q01DX009 (ip), vehicle: saline with Tween-80) was 110 % of control. For the same compound, the T/C (endpoint: mean survival time, dose: 20.0 mg/kg/injection, schedule: Q01DX009 (ip), vehicle: saline with Tween-80) was 160 % of control, the T/C (endpoint: mean survival time, dose: 80.0 mg/kg/injection, schedule: Q01DX009 (ip), vehicle: saline with Tween-80) was 108 % of control and the T/C (endpoint: median survival time, dose: 3.6 mg/kg/injection, schedule: Q01DX009 (ip), vehicle: saline with Tween-80) was 106 % of control. For the same compound, the T/C (endpoint: median survival time, dose: 16.67 mg/kg/injection, schedule: Q01DX009 (ip), vehicle: saline with Tween-80) was 264 % of control.
In the case of `O=C(NNc1cccc(Cl)c1)C(O)C(O)C(O)C(O)CO` (configuration not stated), the T/C [1] is reported as 93 % of control, the T/C (endpoint: mean survival time, dose: 100.0 mg/kg/injection, schedule: Q01DX009 (ip), vehicle: saline) is reported as 108 % of control and the T/C (endpoint: mean survival time, dose: 200.0 mg/kg/injection, schedule: Q01DX009 (ip), vehicle: saline) is reported as 96 % of control.
For `C=C1C(=O)O[C@@H]2C[C@@H](C)[C@@H]3C=CC(=O)[C@@]3(C)[C@@H](O)[C@H]12`, the T/C (endpoint: mean survival time, dose: 8.0 mg/kg/injection, schedule: Q04DX003 (ip), vehicle: saline with Tween-80) was 117 % of control.
In the case of `Nc1nc(N)c2nc(CCOc3ccc(C(=O)NC(CCC(=O)O)C(=O)O)cc3)cnc2n1` (configuration not stated), the T/C (endpoint: mean survival time, dose: 0.38 mg/kg/injection, schedule: Q01DX009 (ip), vehicle: sodium bicarbonate) is reported as 87 % of control, the T/C (endpoint: mean survival time, dose: 0.75 mg/kg/injection, schedule: Q01DX009 (ip), vehicle: sodium bicarbonate) is reported as 90 % of control and the T/C (endpoint: mean survival time, dose: 1.5 mg/kg/injection, schedule: Q01DX009 (ip), vehicle: sodium bicarbonate) is reported as 87 % of control. The T/C (endpoint: mean survival time, dose: 3.0 mg/kg/injection, schedule: Q01DX009 (ip), vehicle: sodium bicarbonate) was 87 % of control, the T/C (endpoint: mean survival time, dose: 6.0 mg/kg/injection, schedule: Q01DX009 (ip), vehicle: sodium bicarbonate) was 98 % of control and the T/C (endpoint: mean survival time, dose: 12.0 mg/kg/injection, schedule: Q01DX009 (ip), vehicle: distilled water + Tween-80) was 104 % of control. The T/C (endpoint: mean survival time, dose: 24.0 mg/kg/injection, schedule: Q01DX009 (ip), vehicle: distilled water + Tween-80) was 102 % of control and the T/C (endpoint: mean survival time, dose: 48.0 mg/kg/injection, schedule: Q01DX009 (ip), vehicle: distilled water + Tween-80) was 104 % of control.
For `N/C(=N\N=C(c1ccccc1)c1ccccc1)N[N+](=O)[O-]`, the T/C [2] was 97 % of control, the T/C [3] was 100 % of control and the T/C [4] was 103 % of control.
`C=C(Br)CNC(=O)OC` was tested, and the T/C (endpoint: mean survival time, dose: 12.5 mg/kg/injection, schedule: Q01DX009 (ip), vehicle: saline) was 102 % of control, the T/C (endpoint: mean survival time, dose: 25.0 mg/kg/injection, schedule: Q01DX009 (ip), vehicle: saline) was 104 % of control and the T/C [1] was 112 % of control. For the same compound, the T/C [2] was 96 % of control.
For `O=C(CCCN1CCC(O)(c2cccc(C(F)(F)F)c2)CC1)c1ccc(F)cc1`, the T/C (endpoint: mean survival time, dose: 12.5 mg/kg/injection, schedule: Q04DX003 (ip), vehicle: Klucel (hydroxypropylcellulose) (HPC)) was 95 % of control, the T/C (endpoint: mean survival time, dose: 25.0 mg/kg/injection, schedule: Q04DX003 (ip), vehicle: Klucel (hydroxypropylcellulose) (HPC)) was 92 % of control and the T/C (endpoint: mean survival time, dose: 50.0 mg/kg/injection, schedule: Q04DX003 (ip), vehicle: Klucel (hydroxypropylcellulose) (HPC)) was 98 % of control. For the same compound, the T/C (endpoint: mean survival time, dose: 100.0 mg/kg/injection, schedule: Q04DX003 (ip), vehicle: Klucel (hydroxypropylcellulose) (HPC)) was 97 % of control.
In the case of `COc1ccc2[nH]c3c(c2c1)CNCC3`, the T/C (endpoint: mean survival time, dose: 50.0 mg/kg/injection, schedule: Q01DX001 (ip), vehicle: saline) is reported as 106 % of control, the T/C [5] is reported as 102 % of control and the T/C [6] is reported as 113 % of control.
`CC1=CC2c3cccc4[nH]cc(c34)CC2N(C)C1` (configuration not stated) was tested, and the T/C (endpoint: median survival time, dose: 1.25 mg/kg/injection, schedule: Q01DX009 (ip), vehicle: suspension in saline) was 101 % of control, the T/C (endpoint: median survival time, dose: 2.5 mg/kg/injection, schedule: Q01DX009 (ip), vehicle: suspension in saline) was 101 % of control and the T/C (endpoint: median survival time, dose: 5.0 mg/kg/injection, schedule: Q01DX009 (ip), vehicle: suspension in saline) was 101 % of control. The T/C (endpoint: median survival time, dose: 10.0 mg/kg/injection, schedule: Q01DX009 (ip), vehicle: suspension in saline) was 101 % of control and the T/C (endpoint: median survival time, dose: 20.0 mg/kg/injection, schedule: Q01DX009 (ip), vehicle: suspension in saline) was 98 % of control.
For `C(=C\c1cc[n+](CCc2ccccc2)cc1)/c1ccccc1`, the T/C (endpoint: mean survival time, dose: 6.25 mg/kg/injection, schedule: Q01DX009 (ip), vehicle: saline with Tween-80) was 104 % of control, the T/C (endpoint: mean survival time, dose: 12.5 mg/kg/injection, schedule: Q01DX009 (ip), vehicle: saline with Tween-80) was 98 % of control and the T/C [7] was 108 % of control.
With `O=S(=O)(Nc1ccc2c3c(cccc13)C=C2)c1ccccc1` the T/C [2] was 98 % of control, the T/C [3] was 98 % of control and the T/C [4] was 98 % of control.
For `Cc1ccc2cccc(CC(=O)O)c2c1`, the T/C (endpoint: mean survival time, dose: 100.0 mg/kg/injection, schedule: Q04DX002 (ip), vehicle: saline with Tween-80) was 102 % of control, the T/C (endpoint: mean survival time, dose: 200.0 mg/kg/injection, schedule: Q04DX002 (ip), vehicle: saline with Tween-80) was 98 % of control and the T/C (endpoint: mean survival time, dose: 400.0 mg/kg/injection, schedule: Q04DX002 (ip), vehicle: saline with Tween-80) was 91 % of control.
`COc1cc2nc(/C=C/c3nc4cc(OC)c(OC)cc4[nH]3)[nH]c2cc1OC` was tested, and the T/C [8] was 106 % of control.
`c1ccc(N=Nn2c3ccccc3c3ccccc32)cc1` was tested, and the T/C [8] was 104 % of control, the T/C (endpoint: mean survival time, dose: 200.0 mg/kg/injection, schedule: Q01DX001 (ip), vehicle: saline with Tween-80) was 102 % of control and the T/C (endpoint: mean survival time, dose: 264.0 mg/kg/injection, schedule: Q01DX001 (ip), vehicle: saline with Tween-80) was 104 % of control. The T/C (endpoint: mean survival time, dose: 400.0 mg/kg/injection, schedule: Q01DX001 (ip), vehicle: saline with Tween-80) was 120 % of control and the T/C (endpoint: mean survival time, dose: 600.0 mg/kg/injection, schedule: Q01DX001 (ip), vehicle: saline with Tween-80) was 104 % of control.
`CCN(CC)P(=O)(NCCCl)OC` (configuration not stated) was tested, and the T/C (endpoint: mean survival time, dose: 100.0 mg/kg/injection, schedule: Q01DX009 (ip), vehicle: DMSO) was 103 % of control.
With `CC(C)(C)COC(=O)Nc1cccc(O)c1` the T/C [2] was 96 % of control, the T/C [3] was 95 % of control and the T/C [4] was 102 % of control.
In the case of `CC(NC(=O)OCc1ccccc1)C(=O)NC(CC(=O)O)C(=O)O` (configuration not stated), the T/C (endpoint: mean survival time, dose: 100.0 mg/kg/injection, schedule: Q04DX003 (ip), vehicle: saline) is reported as 92 % of control.
`Cc1nc(N)nc2c1CCC(O)S2` (configuration not stated) was tested, and the T/C (endpoint: mean survival time, dose: 25.0 mg/kg/injection, schedule: Q01DX001 (ip), vehicle: Klucel (hydroxypropylcellulose) (HPC)) was 96 % of control, the T/C (endpoint: mean survival time, dose: 50.0 mg/kg/injection, schedule: Q01DX001 (ip), vehicle: Klucel (hydroxypropylcellulose) (HPC)) was 96 % of control and the T/C (endpoint: mean survival time, dose: 100.0 mg/kg/injection, schedule: Q01DX001 (ip), vehicle: Klucel (hydroxypropylcellulose) (HPC)) was 96 % of control.
`CN(C)c1ccc(/C=C/c2cc[n+](C)cc2)cc1` was tested, and the T/C (endpoint: mean survival time, dose: 4.0 mg/kg/injection, schedule: Q01DX009 (ip), vehicle: saline) was 97 % of control and the T/C (endpoint: mean survival time, dose: 8.0 mg/kg/injection, schedule: Q01DX009 (ip), vehicle: saline) was 94 % of control.
For `COC(=O)c1cn(C2OC(CO)C(O)C2O)c2ncnc(N)c12` (configuration not stated), the T/C (endpoint: mean survival time, dose: 3.12 mg/kg/injection, schedule: Q01DX009 (ip), vehicle: water) was 104 % of control, the T/C (endpoint: mean survival time, dose: 6.25 mg/kg/injection, schedule: Q01DX009 (ip), vehicle: water) was 112 % of control and the T/C (endpoint: mean survival time, dose: 12.5 mg/kg/injection, schedule: Q01DX009 (ip), vehicle: water) was 122 % of control.
In the case of `O=C(O)c1ccccc1-c1ccccc1C(=O)Nc1ccc2c(c1)Cc1ccccc1-2`, the T/C (endpoint: mean survival time, dose: 62.5 mg/kg/injection, schedule: Q04DX003 (ip), vehicle: saline with Tween-80) is reported as 101 % of control, the T/C (endpoint: mean survival time, dose: 125.0 mg/kg/injection, schedule: Q04DX003 (ip), vehicle: saline with Tween-80) is reported as 98 % of control and the T/C (endpoint: mean survival time, dose: 250.0 mg/kg/injection, schedule: Q04DX003 (ip), vehicle: saline with Tween-80) is reported as 98 % of control.
In the case of `COc1cc2cccc(OC)c(=O)c2c(O)c1OC`, the T/C [5] is reported as 98 % of control, the T/C [6] is reported as 101 % of control and the T/C (endpoint: mean survival time, dose: 400.0 mg/kg/injection, schedule: Q01DX001 (ip), vehicle: saline) is reported as 101 % of control.
For `Cc1ccc(Cl)cc1NC(=O)CCl`, the T/C [7] was 94 % of control, the T/C (endpoint: mean survival time, dose: 50.0 mg/kg/injection, schedule: Q01DX009 (ip), vehicle: saline with Tween-80) was 94 % of control and the T/C [9] was 89 % of control and 96 % of control. For the same compound, the T/C [2] was 101 % of control, the T/C [3] was 95 % of control and the T/C [4] was 97 % of control.
`O=C(O)C1CC2C=CC1C2` (configuration not stated) was tested, and the T/C [9] was 94 % of control, the T/C [2] was 96 % of control and the T/C (endpoint: mean survival time, dose: 200.0 mg/kg/injection, schedule: Q01DX009 (ip), vehicle: saline with Tween-80) was 91 % of control. For the same compound, the T/C [3] was 96 % of control, the T/C (endpoint: mean survival time, dose: 400.0 mg/kg/injection, schedule: Q01DX009 (ip), vehicle: saline with Tween-80) was 94 % of control and the T/C [4] was 94 % of control.
For `CC(=O)OC1CCC2(C)C(CCC3C2C(=O)C(OC(C)=O)C2(C)C3CC3OC4(CCC(C)CO4)C(C)C32)C1` (configuration not stated), the T/C [2] was 87 % of control, the T/C [3] was 87 % of control and the T/C [4] was 89 % of control.
